The text below walks through data of patent publication US20230202990A1, “CYCLOHEXYL SUBSTITUTED TRIAZOLES” (Hoffmann-La Roche Inc., priority 2020, published 2023).

In the assay the target is T1, human V1a receptor (Homo sapiens, UniProt P37288).
T1 construct: expressed in transfected cells; host or cells: HEK293 cells, transiently transfected; cell membranes
T1 sequence (P37288 whole entry): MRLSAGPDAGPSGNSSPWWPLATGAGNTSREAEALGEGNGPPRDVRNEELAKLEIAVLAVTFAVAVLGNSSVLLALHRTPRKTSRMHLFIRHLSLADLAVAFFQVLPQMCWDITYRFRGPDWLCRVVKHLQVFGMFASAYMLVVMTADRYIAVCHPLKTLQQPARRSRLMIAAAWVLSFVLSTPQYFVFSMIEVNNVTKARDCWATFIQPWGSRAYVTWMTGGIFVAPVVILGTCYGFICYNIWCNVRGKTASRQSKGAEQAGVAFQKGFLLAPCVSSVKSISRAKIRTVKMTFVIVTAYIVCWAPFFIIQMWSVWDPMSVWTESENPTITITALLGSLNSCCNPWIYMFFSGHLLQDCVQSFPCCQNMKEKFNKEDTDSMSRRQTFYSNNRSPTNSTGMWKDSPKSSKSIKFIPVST
Kind of assay: human V1a receptor binding studies (3H-Vasopressin SPA, HEK293 cell membranes). Conditions: competition with 3H-Vasopressin on membranes of HEK293 cells transiently transfected with human V1a receptor; Ki by Cheng-Prussoff equation; read-out: pKi (hV1a) (converted). As for the experimental part:
The human V1a receptor was cloned by RT-PCR from total human liver RNA. The coding sequence was subcloned in an expression vector after sequencing to confirm the identity of the amplified sequence. […] Cell membranes were prepared from HEK293 cells transiently transfected with the expression vector and grown in 20 liter fermenters with the following protocol.
50 g of cells are re-suspended in 30 ml freshly prepared ice cold Lysis buffer (50 mM HEPES, 1 mM EDTA, 10 mM MgCl2 adjusted to pH= 7.4 + complete cocktail of protease inhibitor (Roche Diagnostics)). Homogenized with Polytron for Imin and sonicated on ice for 2x 2 minutes at 80% intensity (Vibracell sonicator). The preparation is centrifuged 20 min at 500 g at 4° C., the pellet is discarded and the supernatant centrifuged 1 hour at 43 ′000g at 4° C. (19 ′000rpm). The pellet is re-suspended in 12.5 ml Lysis buffer+12.5 ml Sucrose 20% and homogenized using a Polytron for 1-2 min. The protein concentration is determined by the Bradford method and aliquots are stored at -80° C. until use. For binding studies 60 mg Yttrium silicate SPA beads (Amersham) are mixed with an aliquot of membrane in binding buffer (50 mM Tris, 120 mM NaCl, 5 mM KCl, 2 mM CaCl2, 10 mM MgCl2) for 15 minutes with mixing. 50 µl of bead/membrane mixture is then added to each well of a 96 well plate, followed by 50 µl of 4 nM 3H-Vasopressin (American Radiolabeled Chemicals). For total binding measurement 100 µl of binding buffer are added to the respective wells, for non-specific binding 100 µl of 8.4 mM cold vasopressin and for compound testing 100 µl of a serial dilution of each compound in 2% DMSO. The plate is incubated 1 h at room temperature, centrifuged 1 min at 1000 g and counted on a Packard Top-Count. Non-specific binding counts are subtracted from each well and data is normalized to the maximum specific binding set at 100%. To calculate an IC50 the curve is fitted using a non-linear regression model (XLfit) and the Ki is calculated using the Cheng-Prussoff equation.
Consider `C[S+]([O-])Cc1nnc([C@H]2CC[C@H](Oc3ccccn3)CC2)n1-c1ccc(Cl)cc1` (mixture of isomers) [Example 37, trans-(rac)-2-((4-(4-(4-Chlorophenyl)-5-((methylsulfinyl)methyl)-4H-1,2,4-triazol-3-yl)cyclohexyl)oxy)pyridine], for which the Ki is 64.6 nM. As for `C[S@@+]([O-])Cc1nnc(C2CCC(Oc3ccccn3)CC2)n1-c1ccc(Cl)cc1` (single isomer, unassigned) [Example 39, trans-(+)-2-((4-(4-(4-Chlorophenyl)-5-((methylsulfinyl)methyl)-4H-1,2,4-triazol-3-yl)cyclohexyl)oxy)pyridine], the figure is 31.6 nM. In the case of `C[S@+]([O-])Cc1nnc([C@H]2CC[C@H](Oc3ccccn3)CC2)n1-c1ccc(Cl)cc1` (stereo in doubt) [Example 38, trans-(-)-2-((4-(4-(4-Chlorophenyl)-5-((methylsulfinyl)methyl)-4H-1,2,4-triazol-3-yl)cyclohexyl)oxy)pyridine] it was 91.2 nM; in that of `COc1cc(Cl)ccc1-n1c(C)nnc1[C@H]1CC[C@@H](Oc2ccccc2)CC1` [Example 2, cis(4-Chloro-2-methoxy-phenyl)-3-methyl-5-(4-phenoxy-cyclohexyl)-4H-[1,2,4]triazole], 7.59 nM. Turning to `Cc1nnc([C@H]2CC[C@H](Oc3ccccn3)CC2)n1-c1ccc(Cl)cc1` [Example 3, trans(4-(4-(4-Chlorophenyl)-5-methyl-4H-1,2,4-triazol-3-yl)cyclohexyloxy)pyridine], the Ki is 0.912 nM.

Regarding `Cc1nnc([C@H]2CC[C@H](Oc3ccccn3)CC2)n1-c1ccc(F)cc1` [Example 4, trans((4-(4-(4-Fluorophenyl)-5-methyl-4H-1,2,4-triazol-3-yl)cyclohexyl)oxy)pyridine], the Ki was 2.04 nM. For `Cc1nnc([C@H]2CC[C@H](Oc3ccccn3)CC2)n1-c1ccccc1` [Example 5, trans((4-(5-Methyl-4-phenyl-4H-1,2,4-triazol-3-yl)cyclohexyl)oxy)pyridine], the Ki was 5.25 nM. In the case of `Cc1nnc([C@H]2CC[C@H](Oc3ccccn3)CC2)n1-c1ccc(C(F)F)cc1` [Example 7, trans((4-(4-(4-(Difluoromethyl)phenyl)-5-methyl-4H-1,2,4-triazol-3-yl)cyclohexyl)oxy)pyridine] it was 18.6 nM.

On to `Cc1nnc([C@H]2CC[C@H](Oc3ccccn3)CC2)n1-c1ccc(C#N)cc1` [Example 8, trans(3-Methyl-5-((1r,4r)(pyridin-2-yloxy)cyclohexyl)-4H-1,2,4-triazolyl)benzonitrile], for which the Ki was 38.9 nM. For `Cc1nnc([C@H]2CC[C@H](Oc3ccccn3)CC2)n1-c1ccc(Br)cc1` [Example 9, trans((4-(4-(4-Bromophenyl)-5-methyl-4H-1,2,4-triazol-3-yl)cyclohexyl)oxy)pyridine], the Ki is 0.195 nM. As for `Cc1nnc([C@H]2CC[C@H](Oc3ccccn3)CC2)n1-c1ccc(Cl)cc1F` [Example 12, trans((4-(4-(4-Chlorofluorophenyl)-5-methyl-4H-1,2,4-triazol-3-yl)cyclohexyl)oxy)pyridine], the figure is 0.759 nM; as for `Cc1cc(Cl)ccc1-n1c(C)nnc1[C@H]1CC[C@H](Oc2ccccn2)CC1` [Example 13], 0.269 nM; as for `CSc1cc(Cl)ccc1-n1c(C)nnc1[C@H]1CC[C@H](Oc2ccccn2)CC1` [Example 14, trans[4-[4-(4-Chloromethylsulfanylphenyl)-5-methyl-1,2,4-triazol-3-yl]cyclohexyl]oxypyridine], 1.58 nM. As for `Cc1ccc(-n2c(C)nnc2[C@H]2CC[C@H](Oc3ccccn3)CC2)cc1F` [Example 20, trans((4-(4-(3-Fluoro-4-methylphenyl)-5-methyl-4H-1,2,4-triazol-3-yl)cyclohexyl)oxy)pyridine], the figure is 1.82 nM; as for `Cc1nnc([C@H]2CC[C@H](Oc3ccccn3)CC2)n1-c1ccc(F)c(F)c1` [Example 21, trans((4-(4-(3,4-Difluorophenyl)-5-methyl-4H-1,2,4-triazol-3-yl)cyclohexyl)oxy)pyridine], 7.08 nM; as for `Cc1nnc([C@H]2CC[C@H](Oc3ccccn3)CC2)n1-c1ccc(Cl)cn1` [Example 23], 17 nM. Take `Cc1nnc([C@H]2CC[C@H](Oc3ccccn3)CC2)n1-c1ncc(Cl)cc1F` [Example 24, transChloro-3-fluoro-2-(3-methyl(4-(pyridin-2-yloxy)cyclohexyl)-4H-1,2,4-triazol-4-yl)pyridine]: the Ki is 61.7 nM. Regarding `Cc1ccc(-n2c(C(F)F)nnc2[C@H]2CC[C@H](Oc3ccccn3)CC2)cc1` [Example 31, trans((4-(5-(Difluoromethyl)-4-(p-tolyl)-4H-1,2,4-triazol-3-yl)cyclohexyl)oxy)pyridine], the Ki is 3.39 nM. As to `FC(F)(F)c1nnc([C@H]2CC[C@H](Oc3ccccn3)CC2)n1-c1ccc(Cl)cc1` [Example 33, trans((4-(4-(4-Chlorophenyl)-5-(trifluoromethyl)-4H-1,2,4-triazol-3-yl)cyclohexyl)oxy)pyridine], the Ki was 2.14 nM.

As to `COCc1nnc([C@H]2CC[C@H](Oc3ccccn3)CC2)n1-c1ccc(Cl)cc1` [Example 35, trans(4-(4-(4-Chlorophenyl)-5-(methoxymethyl)-4H-1,2,4-triazol-3-yl)cyclohexyloxy)pyridine], the Ki is 0.631 nM.

`CN(C)Cc1nnc([C@H]2CC[C@H](Oc3ccccn3)CC2)n1-c1ccc(Cl)cc1` [Example 43, trans(4-(4-Chlorophenyl)-5-(4-(pyridin-2-yloxy)cyclohexyl)-4H-1,2,4-triazol-3-yl)-N,N-dimethylmethanamine]: the Ki was 2.14 nM.

Regarding `CSCCc1nnc([C@H]2CC[C@H](Oc3ccccn3)CC2)n1-c1ccc(Cl)cc1` [Example 46, trans((4-(4-(4-Chlorophenyl)-5-(2-(methylthio)ethyl)-4H-1,2,4-triazol-3-yl)cyclohexyl)oxy)pyridine], the Ki is 0.575 nM.

For the molecule `CN(C)CCc1nnc([C@H]2CC[C@H](Oc3ccccn3)CC2)n1-c1ccc(Cl)cc1` [Example 47], the Ki is 33.1 nM. In the case of `CS(=O)(=O)c1nnc([C@H]2CC[C@H](Oc3ccccn3)CC2)n1-c1ccc(Cl)cc1` [Example 48, trans((4-(4-(4-Chlorophenyl)-5-(methylsulfonyl)-4H-1,2,4-triazol-3-yl)cyclohexyl)oxy)pyridine] it was 20 nM; in that of `COc1nnc([C@H]2CC[C@H](Oc3ccccn3)CC2)n1-c1ccc(Cl)cc1` [Example 49, trans((4-(4-(4-Chlorophenyl)-5-methoxy-4H-1,2,4-triazol-3-yl)cyclohexyl)oxy)pyridine], 0.646 nM; in that of `CN(C)CCOc1nnc([C@H]2CC[C@H](Oc3ccccn3)CC2)n1-c1ccc(Cl)cc1` [Example 51], 32.4 nM. For `Clc1ccc(-n2cnnc2[C@H]2CC[C@H](Oc3ccccn3)CC2)cc1` [Example 52, trans((4-(4-(4-Chlorophenyl)-4H-1,2,4-triazol-3-yl)cyclohexyl)oxy)pyridine], the Ki was 2.24 nM. As for `Cc1cc(Cl)ccc1-n1cnnc1[C@H]1CC[C@H](Oc2ccccn2)CC1` [Example 53], the figure is 0.891 nM; as for `Cc1ccc(-n2cnnc2[C@H]2CC[C@H](Oc3ccccn3)CC2)c(C)c1` [Example 54, trans((4-(4-(2,4-Dimethylphenyl)-4H-1,2,4-triazol-3-yl)cyclohexyl)oxy)pyridine], 2.19 nM.

For `Cc1ccc(-n2c(C)nnc2[C@H]2CC[C@H](Oc3ccc(C)cn3)CC2)cc1` [Example 57, transMethyl-2-[4-[5-methyl-4-(4-methylphenyl)-1,2,4-triazol-3-yl]cyclohexyl] oxypyridine], the Ki was 0.447 nM. Take `Cc1nnc([C@H]2CC[C@H](Oc3ccc(C(F)F)cn3)CC2)n1-c1ccc(Cl)cc1` [Example 60, trans((4-(4-(4-Chlorophenyl)-5-methyl-4H-1,2,4-triazol-3-yl)cyclohexyl)oxy)-5-(difluoromethyl)pyridine]: the Ki is 2.29 nM. In the case of `Cc1ccc(O[C@H]2CC[C@H](c3nnc(C)n3-c3ccc(Cl)cc3)CC2)cn1` [Example 64] it was 0.324 nM. In the case of `Cc1ccc(-n2c(C)nnc2[C@H]2CC[C@H](Oc3ccc(C)nc3)CC2)cc1` [Example 65, transMethyl-5-[4-[5-methyl-4-(4-methylphenyl)-1,2,4-triazol-3-yl]cyclohexyl]oxypyridine] it was 3.39 nM; in that of `COCc1nnc([C@H]2CC[C@H](Oc3ccc(C)nc3)CC2)n1-c1ccc(C)cc1` [Example 66, trans[4-[5-(Methoxymethyl)-4-(4-methylphenyl)-1,2,4-triazol-3-yl]cyclohexyl]oxy-2-methylpyridine], 3.47 nM.
